Key:
PIM-2 = molecular target: T1, PIM-2 (Homo sapiens, UniProt Q9P1W9); experiment: PIM-2 biochemical assay (ADP Hunter); conditions: semi-quantitative class; read-out: PIM2 IC50;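 also: recombinant N-terminally His-tagged human enzyme, kinase activity quantified by detection of ADP formed as the direct reaction product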
T1 construct: histidine tag (N); made in house

PIM-1 = molecular target: T2, PIM-1 (Homo sapiens, UniProt P11309); experiment: PIM-1 biochemical assay (ADP Hunter); conditions: semi-quantitative class; read-out: PIM1 IC50;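 also: recombinant human PIM-1 carrying a C-terminal His tag, kinase activity quantified via ADP formed as the direct enzymatic product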
T2 construct: histidine tag (C); made in house

FLT3 = molecular target: T3, FLT3 (Homo sapiens, UniProt P36888); experiment: FLT3 biochemical assay (ADP Hunter); conditions: semi-quantitative class;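 also: FLT3 enzymatic activity quantified through the ADP produced by the kinase reaction, detected with an ADP Hunter readout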
T3 sequence (P36888 27-993): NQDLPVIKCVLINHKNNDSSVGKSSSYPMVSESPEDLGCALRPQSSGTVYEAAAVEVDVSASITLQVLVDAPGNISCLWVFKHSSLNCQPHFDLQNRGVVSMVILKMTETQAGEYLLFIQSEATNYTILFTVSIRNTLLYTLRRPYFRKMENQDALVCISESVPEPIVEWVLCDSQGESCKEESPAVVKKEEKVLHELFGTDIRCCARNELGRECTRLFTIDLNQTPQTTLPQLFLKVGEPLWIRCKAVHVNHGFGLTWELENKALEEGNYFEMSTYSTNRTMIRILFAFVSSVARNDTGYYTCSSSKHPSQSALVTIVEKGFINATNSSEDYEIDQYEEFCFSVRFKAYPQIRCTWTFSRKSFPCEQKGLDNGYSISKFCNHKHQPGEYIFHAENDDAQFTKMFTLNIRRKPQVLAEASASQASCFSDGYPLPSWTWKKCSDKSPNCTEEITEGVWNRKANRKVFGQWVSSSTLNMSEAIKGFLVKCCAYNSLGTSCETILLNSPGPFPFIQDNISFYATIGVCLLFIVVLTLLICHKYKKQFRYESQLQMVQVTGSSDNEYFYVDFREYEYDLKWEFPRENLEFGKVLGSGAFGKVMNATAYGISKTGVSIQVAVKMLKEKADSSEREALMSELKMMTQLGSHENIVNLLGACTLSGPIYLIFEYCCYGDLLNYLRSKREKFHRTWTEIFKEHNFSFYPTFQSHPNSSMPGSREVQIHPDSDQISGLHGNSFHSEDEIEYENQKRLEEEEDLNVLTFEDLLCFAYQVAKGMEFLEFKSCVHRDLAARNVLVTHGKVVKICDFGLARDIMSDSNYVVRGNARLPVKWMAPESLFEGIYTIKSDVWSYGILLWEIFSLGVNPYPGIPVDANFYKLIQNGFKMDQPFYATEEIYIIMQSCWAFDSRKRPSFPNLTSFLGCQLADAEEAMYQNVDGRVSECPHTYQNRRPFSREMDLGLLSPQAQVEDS

PIM-3 = molecular target: T4, PIM-3 (Homo sapiens, UniProt Q86V86); experiment: PIM-3 biochemical assay (ADP Hunter); conditions: semi-quantitative class; read-out: PIM3 IC50;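 also: kinase activity read out as the quantity of ADP generated by the enzyme reaction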
T4 construct: purchased Millipore 14-738

T2 sequence (P11309 whole entry): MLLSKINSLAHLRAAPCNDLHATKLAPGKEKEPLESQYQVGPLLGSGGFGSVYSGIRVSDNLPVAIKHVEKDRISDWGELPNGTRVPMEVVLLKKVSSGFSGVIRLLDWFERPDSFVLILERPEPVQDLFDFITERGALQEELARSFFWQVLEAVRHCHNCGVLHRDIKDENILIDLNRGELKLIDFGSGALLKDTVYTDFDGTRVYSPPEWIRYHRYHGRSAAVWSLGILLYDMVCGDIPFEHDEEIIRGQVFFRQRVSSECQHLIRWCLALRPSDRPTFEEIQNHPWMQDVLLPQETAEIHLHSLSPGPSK
T1 sequence (Q9P1W9 whole entry): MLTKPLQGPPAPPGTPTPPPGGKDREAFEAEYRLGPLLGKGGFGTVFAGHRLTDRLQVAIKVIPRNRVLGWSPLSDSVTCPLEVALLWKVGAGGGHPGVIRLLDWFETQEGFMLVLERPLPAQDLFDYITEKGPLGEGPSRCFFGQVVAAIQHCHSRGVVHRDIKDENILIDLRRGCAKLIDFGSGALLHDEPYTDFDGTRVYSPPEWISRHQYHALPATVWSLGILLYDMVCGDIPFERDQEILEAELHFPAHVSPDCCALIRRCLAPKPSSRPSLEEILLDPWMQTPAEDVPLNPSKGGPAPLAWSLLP

Row | SMILES | IC50 (PIM-2) [nM] | IC50 (PIM-1) [nM] | IC50 (FLT3) [nM] | IC50 (PIM-3) [nM]
1 | CC(C)(C)OC(=O)N1CCC(Nc2ccc3nnn(-c4cccc(OC(F)(F)F)c4)c3n2)CC1 [2-33] | > 1000 | > 1000 | – | –
2 | CC(C)(C)OC(=O)N1CCN(CCNc2ccc3nnn(-c4cccc(OC(F)(F)F)c4)c3n2)CC1 [2-34] | > 1000 | > 1000 | – | –
3 | O=C1CN(CCNc2ccc3nnn(-c4cccc(OC(F)(F)F)c4)c3n2)CCN1 [2-35] | > 1000 | 100 to 1000 | – | –
4 | FC(F)(F)Oc1cccc(-n2nnc3ccc(NCCN4CCNCC4)nc32)c1 [2-36] | > 1000 | 100 to 1000 | 100 to 1000 | –
5 | OCCNc1ccc2nnn(-c3cccc(OC(F)(F)F)c3)c2n1 [2-37] | > 1000 | 100 to 1000 | – | –
6 | OCCCNc1ccc2nnn(-c3cccc(OC(F)(F)F)c3)c2n1 [2-38] | > 1000 | 100 to 1000 | > 1000 | –
7 | CN(C)CCNc1ccc2nnn(-c3cccc(OC(F)(F)F)c3)c2n1 [2-39] | > 1000 | > 1000 | – | –
8 | NC(=O)CNc1ccc2nnn(-c3cccc(OC(F)(F)F)c3)c2n1 [2-40] | > 1000 | > 1000 | – | –
9 | CC(=O)NCCNc1ccc2nnn(-c3cccc(OC(F)(F)F)c3)c2n1 [2-41] | > 1000 | > 1000 | – | –
10 | NC(=O)CCNc1ccc2nnn(-c3cccc(OC(F)(F)F)c3)c2n1 [2-42] | > 1000 | 100 to 1000 | – | –
11 | FC(F)(F)Oc1cccc(-n2nnc3ccc(N4CCC5(CC4)CNC5)nc32)c1 [2-43] | > 1000 | 100 to 1000 | > 1000 | –
12 | CNC1CCN(c2ccc3nnn(-c4cccc(OC(F)(F)F)c4)c3n2)CC1 [2-44] | > 1000 | – | > 1000 | 100 to 1000
13 | FC(F)(F)Oc1cccc(-n2nnc3ccc(N4CCC5(CCNCC5)CC4)nc32)c1 [2-45] | > 1000 | – | > 1000 | –
14 | FC(F)(F)Oc1cccc(-n2nnc3ccc(N4CC5CNCC5C4)nc32)c1 (stereo not drawn) [2-46] | > 1000 | – | > 1000 | –
15 | O=C1NCCN1CCNc1ccc2nnn(-c3cccc(OC(F)(F)F)c3)c2n1 [2-48] | > 1000 | 100 to 1000 | – | –
16 | CNCCCNc1ccc2nnn(-c3cccc(OC(F)(F)F)c3)c2n1 [2-50] | > 1000 | 100 to 1000 | – | –
17 | O=C1NCCC12CCN(c1ccc3nnn(-c4cccc(OC(F)(F)F)c4)c3n1)CC2 [2-51] | > 1000 | > 1000 | – | –
18 | O=C1CNC2(CCN(c3ccc4nnn(-c5cccc(OC(F)(F)F)c5)c4n3)CC2)C1 [2-52] | > 1000 | > 1000 | – | –
19 | FC(F)(F)Oc1cccc(-n2nnc3ccc(N4CCC5(CCNC5)CC4)nc32)c1 [2-60] | > 1000 | – | > 1000 | –
20 | FC(F)(F)Oc1cccc(-n2nnc3ccc(N4CCC5(CCNCC5)C4)nc32)c1 [2-62] | > 1000 | – | > 1000 | 100 to 1000
21 | FC(F)(F)Oc1cccc(-n2nnc3ccc(N4CCC5(CCNC5)C4)nc32)c1 (stereo not drawn) [2-64] | > 1000 | 100 to 1000 | > 1000 | –
22 | Nc1ccc(-n2nnc3ccc(NCC4CCNCC4)nc32)cn1 [2-71] | > 1000 | – | 100 to 1000 | –
23 | CS(=O)(=O)N1CCN(c2ccc3nnn(-c4cccc(OC(F)(F)F)c4)c3n2)CC1 [2-72] | > 1000 | 100 to 1000 | – | > 1000
24 | CC(C)CN1CCC(CNc2ccc3nnn(-c4cccc(OC(F)(F)F)c4)c3n2)CC1 [2-74] | > 1000 | 100 to 1000 | > 1000 | –
25 | FC(F)(F)Oc1cccc(-n2nnc3ccc(NCC4CCN(CC5CCOCC5)CC4)nc32)c1 [2-75] | > 1000 | 100 to 1000 | > 1000 | –
26 | FC(F)(F)Oc1cccc(-n2nnc3cc(Cl)c(NCC4CC5(CCNCC5)C4)nc32)c1 [2-77] | > 1000 | 100 to 1000 | > 1000 | –
27 | FC(F)(F)c1csc(-n2nnc3ccc(NCC4CCNCC4)nc32)n1 [2-88] | > 1000 | – | > 1000 | –
28 | CCN1CCOC2(CCN(c3ccc4nnn(-c5cccc(OC(F)(F)F)c5)c4n3)CC2)C1 [2-90] | > 1000 | > 1000 | 100 to 1000 | –
29 | CCN1CCC2(CC1)CC(CNc1nc3c(cc1Cl)nnn3-c1cccc(OC(F)(F)F)c1)C2 [2-91] | > 1000 | 100 to 1000 | 100 to 1000 | –
30 | COc1cc(NC2CCOCC2)nc2c1nnn2-c1cccc(N(C)C)c1 [2-93] | – | 100 to 1000 | > 1000 | –

Reference: patent US20130065883A1 (Centro Nacional de Investigaceiones Oncologicas (CNIO), priority 2010, published 2013)
